According to patent US12427171B2, “Krill oil composition enriched in LPC-DHA and LPC-EPA” (Aker BioMarine Human Ingredients AS, priority 2020, dated 2025):

Columns and labels:
[1] = Mouse retinal fatty acid composition after daily gavage of free DHA, sn-1 DHA LPC or sn-2 DHA LPC for 30 days (GC/MS); type: in vivo
Experimental: Normal male mice (C57 BL/J6, 16-week-old) were gavaged daily with 1 mg DHA in the form of free DHA, sn-1 DHA LPC, or sn-2 DHA LPC in 80 μL corn oil for 30 days. Retinal FA composition was analyzed by GC/MS. Only the values for arachidonic acid and the omega-3 FA are shown here (mean±SD, 8 animals/group). […] SD: standard deviation; sn-1 and sn-2: stereospecific numbering 1 and 2 respectively; LPC: lysophosphatidylcholine; DHA: docosahexaenoic acid.
(§1) Animals and dietary treatments: All studies in animals described here were approved by the Institutional Animal Care and Use Committee of the University of Illinois at Chicago. The retina samples were obtained from our previous studies on the brain accretion of DHA in mice and rats, which were published previously. Male Sprague-Dawley rats (8-week-old) were purchased from Harlan laboratories (Indianapolis, IN, USA). Male C57 BL/J6 mice (2-4-months-old) were purchased from Jackson Laboratories (Bar Harbor. Maine).
(§2) In the first study, male Sprague-Dawley rats (n=5 per group, 8-week-old) were gavaged daily with 10 mg of DHA (40 mg DHA/kg body weight) in the form of TAG-DHA (DHASCO algal oil, DSM Nutritional Products, Columbia, MD, USA), synthetic di-DHA PC (phosphatidylcholine), or synthetic LPC-DHA (sn-1 acyl) for 30 days. The DHA was distributed equally among the three positions of TAG-DHA [17]. […] In the second study, 4-month-old male C57 BL/J6 mice (n=8 per group) were gavaged daily with 40 mg DHA/kg body weight in the form of free (unesterified) DHA, sn-1 acyl LPC-DHA, or sn-2 acyl LPC-DHA for 30 days as described previously. In the third study, male C57 BL/J6 mice (2-months-old, n=5 per group) were fed diets enriched with natural or lipase-treated fish oil or hill oil for 30 days. The total amount of omega-3 FA (eicosapentaenoic acid (EPA)+DHA) was 2.64 g/kg diet in all the diets. The untreated hill oil contained 18% of total omega-3 FA as LPC, whereas the lipase-treated hill oil contained >80% of the total omega-3 FA as LPC. The fish oil diets contained no LPC-EPA or LPC-DHA. The animals were trans-cardially perfused with ice cold phosphate buffered saline under anesthesia and the retinas were collected and kept frozen at −80° C. until the analysis.
(§3) Analytical procedures: The total lipids of retina were extracted by Bligh and Dyer procedure and the fatty acids were methylated using methanolic HCl. The fatty acid analysis was carried out by GC/MS (gas chromatography/mass spectroscopy) using Shimadzu QP2010SE equipped with Supelco Omegawax column, as described previously. Total ion current in the range of 50-400 m/z was used for quantification of the methyl esters. For LC/MS/MS (liquid chromatography/tandem mass spectroscopy) analysis, the lipids were extracted by the procedure of Ivanova et al.. The analysis of molecular species of phospholipids was performed on an ABSciex QTRAP mass spectrometer (Redwood City, CA, USA) coupled with Agilent 2600 UPLC system (Santa Clara, CA, USA), by multiple reaction monitoring. The internal standards 17:0 LPC, di 17:0 PC, and di 17:0 PE (phosphatidylethanolamine) were used for the quantification of the corresponding molecular species, without applying any correction factors for the differences in the ion intensity of different molecular species.
(§4) Statistics and correlations: The significance of differences between treatment groups was determined by a one-way ANOVA, with Tukey post-hoc multiple comparison corrections or unpaired t-test between control and treated samples adjusted with Holm-Sidak method (Graphpad Prism 8.0, San Diego, CA, USA).

[2] = Rat retinal fatty acid composition after daily gavage of DHA as TAG, PC or LPC for 30 days (GC/MS); type: in vivo
Experimental: Normal male Sprague-Dawley rats (8-week-old; n=5 per group) were gavaged daily with 10 mg DHA in 250 μL corn oil in the form of TAG-DHA, di-DHA PC, or LPC-DHA for 30 days. […] All animals were on regular rodent chow that contained no DHA, but contained 17.4 mg α-linolenic acid (18:3, n-3) per g of chow. Retinal FA were analyzed by GC/MS as described in the text. The percent composition of 20:4 (n-6), 20:5 (n-3), 22:5 (n-3), and 22:6 (n-3) are shown here. The significance of differences between the treatment groups was determined by a one-way ANOVA, with Tukey multiple post-hoc test (Graphpad Prism 8.0). […] TG: triacylglycerol; PC: phosphatidylcholine; LPC: lysophosphatidylcholine; FA: fatty acid; GC/MS: gas chromatography/mass spectroscopy.
as §1, §2, §3
as §4, with “USA). […]” for “USA).”

In the case of `CC/C=C\C/C=C\C/C=C\C/C=C\C/C=C\C/C=C\CCC(=O)O` [Free DHA, docosahexaenoic acid], the “fatty acid composition of mouse retina, 12:0, Mean ± S.D.” value ([1]; 1 mg DHA daily by gavage) is reported as 0.60 ± 0.35, the “fatty acid composition of mouse retina, 14:0, Mean ± S.D.” value ([1]; 1 mg DHA daily by gavage) is reported as 0.20 ± 0.17 and the “fatty acid composition of mouse retina, 16:0, Mean ± S.D.” value ([1]; 1 mg DHA daily by gavage) is reported as 16.11 ± 1.56. The “fatty acid composition of mouse retina, 16:0 DMA, Mean ± S.D.” value ([1]; 1 mg DHA daily by gavage) was 0.75 ± 0.56, the “fatty acid composition of mouse retina, 16:1 (n-7), Mean ± S.D.” value ([1]; 1 mg DHA daily by gavage) was 0.55 ± 0.28 and the “fatty acid composition of mouse retina, 17:1 (n-7), Mean ± S.D.” value ([1]; 1 mg DHA daily by gavage) was 0.43 ± 0.16. For the same compound, the “fatty acid composition of mouse retina, 18:0, Mean ± S.D.” value ([1]; 1 mg DHA daily by gavage) was 17.32 ± 0.66, the “fatty acid composition of mouse retina, 18:0 DMA, Mean ± S.D.” value ([1]; 1 mg DHA daily by gavage) was 2.10 ± 0.88 and the “fatty acid composition of mouse retina, 18:1(n-7), Mean ± S.D.” value ([1]; 1 mg DHA daily by gavage) was 4.18 ± 0.34. For the same compound, the “fatty acid composition of mouse retina, 18:1 (n-9), Mean ± S.D.” value ([1]; 1 mg DHA daily by gavage) was 17.14 ± 0.78, the “fatty acid composition of mouse retina, 18:1 DMA, Mean ± S.D.” value ([1]; 1 mg DHA daily by gavage) was 0.85 ± 0.56 and the “fatty acid composition of mouse retina, 18:2 (n-6), Mean ± S.D.” value ([1]; 1 mg DHA daily by gavage) was 0.99 ± 0.65. For the same compound, the “fatty acid composition of mouse retina, 18:3 (n-3), Mean ± S.D.” value ([1]; 1 mg DHA daily by gavage) was 0.49 ± 0.15, the “fatty acid composition of mouse retina, 18:3 (n-6), Mean ± S.D.” value ([1]; 1 mg DHA daily by gavage) was 0.49 ± 0.36 and the “fatty acid composition of mouse retina, 20:0, Mean ± S.D.” value ([1]; 1 mg DHA daily by gavage) was 1.90 ± 0.64. The “fatty acid composition of mouse retina, 20:1 (n-9), Mean ± S.D.” value ([1]; 1 mg DHA daily by gavage) was 3.42 ± 0.59, the “fatty acid composition of mouse retina, 20:2 (n-6), Mean ± S.D.” value ([1]; 1 mg DHA daily by gavage) was 0.71 ± 0.50 and the “fatty acid composition of mouse retina, 20:3 (n-6), Mean ± S.D.” value ([1]; 1 mg DHA daily by gavage) was 1.30 ± 0.66. The “fatty acid composition of mouse retina, 20:4 (n-6), Mean ± S.D.” value ([1]; 1 mg DHA daily by gavage) was 7.42 ± 0.72, the “fatty acid composition of mouse retina, 20:5 (n-3), Mean ± S.D.” value ([1]; 1 mg DHA daily by gavage) was 2.03 ± 1.21 and the “fatty acid composition of mouse retina, 22:0, Mean ± S.D.” value ([1]; 1 mg DHA daily by gavage) was 1.08 ± 0.59. The “fatty acid composition of mouse retina, 22:2 (n-6), Mean ± S.D.” value ([1]; 1 mg DHA daily by gavage) was 0.77 ± 0.51, the “fatty acid composition of mouse retina, 22:4 (n-6), Mean ± S.D.” value ([1]; 1 mg DHA daily by gavage) was 2.51 ± 0.85 and the “fatty acid composition of mouse retina, 22:5 (n-3), Mean ± S.D.” value ([1]; 1 mg DHA daily by gavage) was 0.42 ± 0.15. The “fatty acid composition of mouse retina, 22:6 (n-3), Mean ± S.D.” value ([1]; 1 mg DHA daily by gavage) was 15.74 ± 1.57, the “fatty acid composition of mouse retina, 24:1 (n-9), Mean ± S.D.” value ([1]; 1 mg DHA daily by gavage) was 0.51 ± 0.25 and the “effect on retinal DHA” value ([1]; mice, 1 mg DHA daily) was “no effect”.
With `CC/C=C\C/C=C\C/C=C\C/C=C\C/C=C\C/C=C\CCC(=O)OC[C@H](COP(=O)([O-])OCC[N+](C)(C)C)OC(=O)CC/C=C\C/C=C\C/C=C\C/C=C\C/C=C\C/C=C\CC` [PC-DHA] the “rat retinal fatty acid composition, 12:0, Mean” value ([2]; 10 mg DHA daily by gavage) was 4.57 % of total FA, the “rat retinal fatty acid composition, 14:0, Mean” value ([2]; 10 mg DHA daily by gavage) was 0.97 % of total FA and the “rat retinal fatty acid composition, 16:0, Mean” value ([2]; 10 mg DHA daily by gavage) was 19.06 % of total FA. For the same compound, the “rat retinal fatty acid composition, 16:0 DMA, Mean” value ([2]; 10 mg DHA daily by gavage) was 0.05 % of total FA, the “rat retinal fatty acid composition, 16:1 (n-7), Mean” value ([2]; 10 mg DHA daily by gavage) was 0.65 % of total FA and the “rat retinal fatty acid composition, 17:1 (n-7), Mean” value ([2]; 10 mg DHA daily by gavage) was 0.03 % of total FA. For the same compound, the “rat retinal fatty acid composition, 18:0, Mean” value ([2]; 10 mg DHA daily by gavage) was 17.79 % of total FA, the “rat retinal fatty acid composition, 18:0 DMA, Mean” value ([2]; 10 mg DHA daily by gavage) was 0.03 % of total FA and the “rat retinal fatty acid composition, 18:1 (n-7), Mean” value ([2]; 10 mg DHA daily by gavage) was 3.91 % of total FA. For the same compound, the “rat retinal fatty acid composition, 18:1 (n-9), Mean” value ([2]; 10 mg DHA daily by gavage) was 17.70 % of total FA, the “rat retinal fatty acid composition, 18:1 DMA, Mean” value ([2]; 10 mg DHA daily by gavage) was 0.06 % of total FA and the “rat retinal fatty acid composition, 18:2 (n-6), Mean” value ([2]; 10 mg DHA daily by gavage) was 0.95 % of total FA. For the same compound, the “rat retinal fatty acid composition, 18:3 (n-3), Mean” value ([2]; 10 mg DHA daily by gavage) was 0.07 % of total FA, the “rat retinal fatty acid composition, 18:3 (n-6), Mean” value ([2]; 10 mg DHA daily by gavage) was 0.49 % of total FA and the “rat retinal fatty acid composition, 20:0, Mean” value ([2]; 10 mg DHA daily by gavage) was 0.05 % of total FA. The “rat retinal fatty acid composition, 20:1 (n-9), Mean” value ([2]; 10 mg DHA daily by gavage) was 0.07 % of total FA, the “rat retinal fatty acid composition, 20:2 (n-6), Mean” value ([2]; 10 mg DHA daily by gavage) was 0.06 % of total FA and the “rat retinal fatty acid composition, 20:3 (n-6), Mean” value ([2]; 10 mg DHA daily by gavage) was 0.06 % of total FA. For the same compound, the “rat retinal fatty acid composition, 20:4 (n-6), Mean” value ([2]; 10 mg DHA daily by gavage) was 8.45 % of total FA, the “rat retinal fatty acid composition, 20:5 (n-3), Mean” value ([2]; 10 mg DHA daily by gavage) was 0.06 % of total FA and the “rat retinal fatty acid composition, 22:0, Mean” value ([2]; 10 mg DHA daily by gavage) was 0.07 % of total FA. The “rat retinal fatty acid composition, 22:2 (n-6), Mean” value ([2]; 10 mg DHA daily by gavage) was 0.12 % of total FA, the “rat retinal fatty acid composition, 22:4 (n-6), Mean” value ([2]; 10 mg DHA daily by gavage) was 0.07 % of total FA and the “rat retinal fatty acid composition, 22:5 (n-3), Mean” value ([2]; 10 mg DHA daily by gavage) was 0.06 % of total FA. For the same compound, the “rat retinal fatty acid composition, 22:5 (n-6), Mean” value ([2]; 10 mg DHA daily by gavage) was 0.02 % of total FA, the “rat retinal fatty acid composition, 22:6 (n-3), Mean” value ([2]; 10 mg DHA daily by gavage) was 24.53 % of total FA and the “rat retinal fatty acid composition, 24:1 (n-9), Mean” value ([2]; 10 mg DHA daily by gavage) was 0.05 % of total FA. The “change of the percentage of DHA in retina versus control” value ([2]; rats, 10 mg DHA/day (40 mg DHA/kg)) was “+45%”.
